Columns and labels:
[1] = Solubility study in CH3CN; assay type: physicochemical; settings: 25° C.
Protocol: (§1) The solubility and stability studies were carried out in CH3CN at 25° C. The saturated solution was dried, and the solubility was determined by the weight of the testing compounds in the exact volume of testing solution. The stability was determined based on either TLC or HPLC and ^1H-NMR analyses.

Stability study in CH3CN = assay type: physicochemical; settings: 25° C., checked by HPLC and 1H-NMR
Protocol: Stability and solubility studies of the sulfur transfer reagents were performed. […] The stability of the compound was checked by HPLC and ^1H-NMR.
as §1

Structure (SMILES): O=c1nc(-c2ccccc2)ss1 [3-phenyl-1,2,4-dithiazoline-5-one]
- solubility in CH3CN [1]: highly soluble
- stable in CH3CN (Stability study in CH3CN): more than thirty

— patent publication US6500944B2, “Sulfurizing reagent: 3-aryl-1,2,4-dithiazoline-5-ones” (Avecia Biotechnology, Inc., priority 1997, dated 2002)
